Assay results from patent US11000033B2, “Ketone or oxime compound, and herbicide” (NISSAN CHEMICAL CORPORATION, priority 2014, dated 2021).

Assays:
Format in all cases: in vivo
Alopecurus myosuroides = assay: Test Example 5: herbicidal effect by foliage application, plastic box (symbol J); details: 320 g/ha, 3 weeks after application
How it was run: (§1)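 Emulsion formulation, diluted with water to the intended rate, was applied uniformly to leaves by small sprayer. Recipients were 14-day greenhouse-grown seedlings (25° C. to 30° C.). Assessment followed at 3 weeks.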

[1] = system: Echinochloa crus-galli var. crus-galli; assay: Test Example 5: herbicidal effect by foliage application, plastic box (symbol H); details: 320 g/ha, 3 weeks after application
How it was run: as §1

Cyperus difformis = assay: Test Example 3: herbicidal effect by foliage application, Wagner pot (symbol E); details: application herbicide amount 320 g/ha, Table 24
How it was run: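 The compound, formulated as an emulsion and diluted with water to a predetermined rate, is applied uniformly to leaves of two-week-old seedlings growing in submerged alluvial soil at 25–30 °C. Rice is included. Each plant is assessed 3 weeks later using defined criteria.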

Setaria viridis = assay: Test Example 4: herbicidal effect by soil treatment (symbol G); details: application herbicide amount 320 g/ha
How it was run: (§2)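 Seeds were sown in sterilized diluvial soil, covered with about 1.5 cm of soil, and the soil surface was sprayed with a water-diluted emulsion of the compound at a predetermined rate. Plants grew in a greenhouse at 25° C. to 30° C.; effects were scored visually 3 weeks after application.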

[2] = system: Echinochloa oryzacola Vasing.; assay: Test Example 2: herbicidal activity, application during weed generation in submerged conditions (symbol A); details: Table 23; application herbicide amount 320 g/ha; grade 0-5 by criteria of Test Example 1
How it was run: (§3)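 Treatment timing was the one- to two-leaf stage, with diluted emulsifiable compound dropped onto the paddy water (depth 4 cm) over alluvial soil. All three species grew from a mixed sowing in a 25° C. to 30° C. greenhouse. Injury was judged by eye 3 weeks on.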

Amaranthus retroflexus [3] = assay: Test Example 4: herbicidal effect by soil treatment (symbol N); details: application herbicide amount 320 g/ha
How it was run: as §2

[4] = system: Echinochloa oryzacola Vasing.; assay: Test Example 1: herbicidal activity, application before weed generation in submerged conditions (symbol A); details: application herbicide amount 320 g/ha
How it was run: (§4)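 Steps: alluvial soil flooded to 4 cm; weed seeds sown together; rice seedlings (2.5 leaf) transplanted; diluted emulsion applied to water surface the same day as sowing; plants grown at 25–30 °C in greenhouse; herbicidal effect rated on a 0–5 scale at 3 weeks.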

transplanted rice plant = assay: Test Example 1: effect on crop, application before weed generation in submerged conditions (symbol a); details: application herbicide amount 320 g/ha
How it was run: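 Rice at 2.5 leaf stage transplanted into submerged soil (4 cm depth) sown with three weed species; herbicide applied before weed emergence.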

Scirpus juncoides [5] = assay: Test Example 2: herbicidal activity, application during weed generation in submerged conditions (symbol B); details: Table 23; application herbicide amount 320 g/ha; grade 0-5 by criteria of Test Example 1
How it was run: as §3

wheat = assay: Test Example 4: effect on crop by soil treatment (symbol e); details: application herbicide amount 320 g/ha
How it was run: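 Soil-treatment setup: crop and weed seeds were spot-sown into sterilized diluvial soil, then buried beneath approximately 1.5 cm of it, and the boxes were housed in a 25–30° C. greenhouse.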

Scirpus juncoides [6] = assay: Test Example 1: herbicidal activity, application before weed generation in submerged conditions (symbol B); details: application herbicide amount 320 g/ha
How it was run: as §4

Amaranthus retroflexus [7] = assay: Test Example 5: herbicidal effect by foliage application, plastic box (symbol N); details: 320 g/ha, 3 weeks after application
How it was run: as §1

Apera spica-venti = assay: Test Example 4: herbicidal effect by soil treatment (symbol L); details: application herbicide amount 320 g/ha
How it was run: as §2

| Compound | J: Alopecurus myosuroides, herbicidal effect grade (Alopecurus myosuroides) | H: Echinochloa crus-galli var. crus-galli, herbicidal effect grade [1] | E herbicidal effect grade (Cyperus difformis) | Herbicidal effect grade, G: Setaria viridis (Setaria viridis) | Herbicidal effect grade, A: Echinochloa oryzacola Vasing. [2] | Herbicidal effect grade, N: Amaranthus retroflexus (Amaranthus retroflexus [3]) | A (Echinochloa oryzacola Vasing.) herbicidal effect grade [4] | a (transplanted rice plant) effect on crop grade (transplanted rice plant) | Herbicidal effect grade, B: Scirpus juncoides (Scirpus juncoides [5]) | Effect on crop grade, e: wheat (wheat) | B (Scirpus juncoides) herbicidal effect grade (Scirpus juncoides [6]) | N: Amaranthus retroflexus, herbicidal effect grade (Amaranthus retroflexus [7]) | Herbicidal effect grade, L: Apera spica-venti (Apera spica-venti) | G: Setaria viridis, herbicidal effect grade (Setaria viridis) | N: Amaranthus retroflexus, herbicidal effect grade (Amaranthus retroflexus [3]) | e: wheat, effect on crop grade (wheat) | L: Apera spica-venti, herbicidal effect grade (Apera spica-venti) |
| --- | --- | --- | --- | --- | --- | --- | --- | --- | --- | --- | --- | --- | --- | --- | --- | --- | --- |
| COC(=O)C(C(=O)C1CC1)C1CC(O)=C(c2c(C)cc(Br)cc2C)C1=O (mixture of isomers) [10-002] | 4 (Herbicidal ratio of 70% or higher and lower than 90%) | 5 (Herbicidal ratio of 90% or more (almost completely withered)) | 3 (Herbicidal ratio of 40% or higher and lower than 70%) | 4 (Herbicidal ratio of 70% or higher and lower than 90%) | 1 (Herbicidal ratio of 5% or higher and lower than 20%) | 0 (Herbicidal ratio of 5% or lower (almost no effect)) | 1 (Herbicidal ratio of 5% or higher and lower than 20%) | 1 (Herbicidal ratio of 5% or higher and lower than 20%) | 0 (Herbicidal ratio of 5% or lower (almost no effect)) | 0 (Herbicidal ratio of 5% or lower (almost no effect)) | 0 (Herbicidal ratio of 5% or lower (almost no effect)) | 0 (Herbicidal ratio of 5% or lower (almost no effect)) | 3 (Herbicidal ratio of 40% or higher and lower than 70%) | – | – | – | – |
| CON=C(C)CC1(C)CC(O)=C(c2c(C)cc(C)cc2C)C1=O (mixture of isomers) [11-002] | 5 (Herbicidal ratio of 90% or more (almost completely withered)) | 5 (Herbicidal ratio of 90% or more (almost completely withered)) | 4 (Herbicidal ratio of 70% or higher and lower than 90%) | 1 (Herbicidal ratio of 5% or higher and lower than 20%) | 2 (Herbicidal ratio of 20% or higher and lower than 40%) | 0 (Herbicidal ratio of 5% or lower (almost no effect)) | 2 (Herbicidal ratio of 20% or higher and lower than 40%) | 2 (Herbicidal ratio of 20% or higher and lower than 40%) | 0 (Herbicidal ratio of 5% or lower (almost no effect)) | 0 (Herbicidal ratio of 5% or lower (almost no effect)) | 0 (Herbicidal ratio of 5% or lower (almost no effect)) | 0 (Herbicidal ratio of 5% or lower (almost no effect)) | 4 (Herbicidal ratio of 70% or higher and lower than 90%) | – | – | – | – |
| CON=C(C)CC1C(O)=C(c2c(C)cc(C)cc2C)C(=O)C1C (mixture of isomers) [12-002] | 5 (Herbicidal ratio of 90% or more (almost completely withered)) | 5 (Herbicidal ratio of 90% or more (almost completely withered)) | 5 (Herbicidal ratio of 90% or more (almost completely withered)) | 5 (Herbicidal ratio of 90% or more (almost completely withered)) | 5 (Herbicidal ratio of 90% or more (almost completely withered)) | 0 (Herbicidal ratio of 5% or lower (almost no effect)) | 5 (Herbicidal ratio of 90% or more (almost completely withered)) | 3 (Herbicidal ratio of 40% or higher and lower than 70%) | 3 (Herbicidal ratio of 40% or higher and lower than 70%) | 0 (Herbicidal ratio of 5% or lower (almost no effect)) | 3 (Herbicidal ratio of 40% or higher and lower than 70%) | 0 (Herbicidal ratio of 5% or lower (almost no effect)) | 3 (Herbicidal ratio of 40% or higher and lower than 70%) | – | – | – | – |
| CCC(CC1CC(O)=C(c2c(C)cc(-c3ccccc3)cc2OC)C1=O)=NOC (mixture of isomers) [13-004] | 5 (Herbicidal ratio of 90% or more (almost completely withered)) | 5 (Herbicidal ratio of 90% or more (almost completely withered)) | 5 (Herbicidal ratio of 90% or more (almost completely withered)) | – | 5 (Herbicidal ratio of 90% or more (almost completely withered)) | – | 5 (Herbicidal ratio of 90% or more (almost completely withered)) | 5 (Herbicidal ratio of 90% or more (almost completely withered)) | 5 (Herbicidal ratio of 90% or more (almost completely withered)) | – | 5 (Herbicidal ratio of 90% or more (almost completely withered)) | 0 (Herbicidal ratio of 5% or lower (almost no effect)) | – | 5 (Herbicidal ratio of 90% or more (almost completely withered)) | 4 (Herbicidal ratio of 70% or higher and lower than 90%) | 5 (Herbicidal ratio of 90% or more (almost completely withered)) | 5 (Herbicidal ratio of 90% or more (almost completely withered)) |
| Cc1cc(Br)cc(C)c1C1=C(O)CC(CC(=O)C(C)C)C1=O (racemic) [10-003] | 3 (Herbicidal ratio of 40% or higher and lower than 70%) | 5 (Herbicidal ratio of 90% or more (almost completely withered)) | 0 (Herbicidal ratio of 5% or lower (almost no effect)) | 4 (Herbicidal ratio of 70% or higher and lower than 90%) | 3 (Herbicidal ratio of 40% or higher and lower than 70%) | 0 (Herbicidal ratio of 5% or lower (almost no effect)) | 1 (Herbicidal ratio of 5% or higher and lower than 20%) | 3 (Herbicidal ratio of 40% or higher and lower than 70%) | 0 (Herbicidal ratio of 5% or lower (almost no effect)) | 0 (Herbicidal ratio of 5% or lower (almost no effect)) | 0 (Herbicidal ratio of 5% or lower (almost no effect)) | 0 (Herbicidal ratio of 5% or lower (almost no effect)) | 3 (Herbicidal ratio of 40% or higher and lower than 70%) | – | – | – | – |
| Cc1cc(Br)cc(C)c1C1=C(O)CC(CC(=O)C2CC2)C1=O (racemic) [10-004] | 5 (Herbicidal ratio of 90% or more (almost completely withered)) | 5 (Herbicidal ratio of 90% or more (almost completely withered)) | 5 (Herbicidal ratio of 90% or more (almost completely withered)) | 5 (Herbicidal ratio of 90% or more (almost completely withered)) | 5 (Herbicidal ratio of 90% or more (almost completely withered)) | 0 (Herbicidal ratio of 5% or lower (almost no effect)) | 5 (Herbicidal ratio of 90% or more (almost completely withered)) | 5 (Herbicidal ratio of 90% or more (almost completely withered)) | 0 (Herbicidal ratio of 5% or lower (almost no effect)) | 0 (Herbicidal ratio of 5% or lower (almost no effect)) | 0 (Herbicidal ratio of 5% or lower (almost no effect)) | 0 (Herbicidal ratio of 5% or lower (almost no effect)) | 5 (Herbicidal ratio of 90% or more (almost completely withered)) | – | – | – | – |
